PMC12498426, “Conformational Plasticity of LptC Regulates Lipopolysaccharide Transport by the LptB2FGC Complex” (Journal of the American Chemical Society, 2025)

Tests used:
LptB2FG [1] = target: T1, LptB2FG (Escherichia coli, UniProt P0A9V1+P0ADC6+P0AF98); design: gene lptF; conditions: POPE/POPG liposomes; 20 mM MgCl2; pH 7.5; 37 °C; 0-5 mM ATP; no LPS
T1 sequence (P0AF98 1-366): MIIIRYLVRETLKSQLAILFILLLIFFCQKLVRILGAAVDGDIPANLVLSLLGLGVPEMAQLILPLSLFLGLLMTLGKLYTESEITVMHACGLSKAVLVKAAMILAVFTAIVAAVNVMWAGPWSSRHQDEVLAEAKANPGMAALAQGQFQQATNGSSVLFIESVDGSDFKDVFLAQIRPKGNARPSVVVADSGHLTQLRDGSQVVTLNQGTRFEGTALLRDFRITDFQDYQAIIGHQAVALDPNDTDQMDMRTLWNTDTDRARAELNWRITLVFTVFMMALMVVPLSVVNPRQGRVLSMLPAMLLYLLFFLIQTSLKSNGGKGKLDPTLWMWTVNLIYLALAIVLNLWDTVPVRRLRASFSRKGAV
T1 sequence (P0ADC6 1-360): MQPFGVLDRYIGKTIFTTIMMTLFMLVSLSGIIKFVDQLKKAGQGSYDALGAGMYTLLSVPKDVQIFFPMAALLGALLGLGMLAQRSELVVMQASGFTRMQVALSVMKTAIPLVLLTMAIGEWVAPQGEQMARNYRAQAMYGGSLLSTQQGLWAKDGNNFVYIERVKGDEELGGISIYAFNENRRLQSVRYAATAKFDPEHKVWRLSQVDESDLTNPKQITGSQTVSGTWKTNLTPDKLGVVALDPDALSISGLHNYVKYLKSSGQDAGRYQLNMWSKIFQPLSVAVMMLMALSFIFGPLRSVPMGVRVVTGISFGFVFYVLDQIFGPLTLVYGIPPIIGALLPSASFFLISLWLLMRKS
T1 sequence (P0A9V1 2-241): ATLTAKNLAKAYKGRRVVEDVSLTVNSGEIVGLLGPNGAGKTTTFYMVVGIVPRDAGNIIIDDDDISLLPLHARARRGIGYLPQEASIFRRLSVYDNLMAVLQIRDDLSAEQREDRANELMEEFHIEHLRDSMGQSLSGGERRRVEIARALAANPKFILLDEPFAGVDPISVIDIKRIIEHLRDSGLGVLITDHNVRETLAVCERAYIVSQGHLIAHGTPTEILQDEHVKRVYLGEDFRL

LptB2FG [2] = target: T1, LptB2FG; experiment: nanoDSF thermal shift; type: binding; design: gene lptF; full-length proteins, N-terminal His6-tag on LptB, pETDuet-1, expressed in E. coli, in DDM micelles or POPE/POPG liposomes; B2FG complex; conditions: 2-fold molar excess of Ra-LPS; DDM micelles; pH 7.5; 5 mM MgCl2
LptB2FGC = target: T2, LptB2FGC (Escherichia coli, UniProt P0A9V1+P0ADC6+P0AF98); experiment: nanoDSF thermal shift; type: binding; conditions: 2-fold molar excess of Ra-LPS; DDM micelles; pH 7.5; 5 mM MgCl2
T2 construct: gene lptF; in vitro assembled from LptB2FG (N-terminal His6 on LptB) and full-length LptC (C-terminal His6); liposomes or resolubilized in DDM; 2:1:1:1, 158 kDa; with Lipopolysaccharide export system protein LptC

LptB2FG complex [3] = target: T3, LptB2FG complex (E. coli, UniProt P0A9V1 1-241; P0AF98 1-366; P0ADC6 1-360); experiment: native MS; LILBID-MS of LptB2FGC resolubilised in DDM micelles, apo state, 20 mM Tris-HCl pH 7.5, 0.05% DDM; conditions: both partners purified
T3 construct: LptF, transmembrane domain subunit of the lipopolysaccharide transporter, E. coli; LptG, transmembrane domain subunit of the lipopolysaccharide transporter, E. coli; Uniformly 13C-labelled for the TEDOR experiments; also called 13C-LptB2FG; ABC transporter LptB2FG; source: E. coli, co-expressed from pETDuet-1, membranes solubilised in DDM, purified (Ni-NTA); expression as previously described; …
T3 sequence (looked up) 1: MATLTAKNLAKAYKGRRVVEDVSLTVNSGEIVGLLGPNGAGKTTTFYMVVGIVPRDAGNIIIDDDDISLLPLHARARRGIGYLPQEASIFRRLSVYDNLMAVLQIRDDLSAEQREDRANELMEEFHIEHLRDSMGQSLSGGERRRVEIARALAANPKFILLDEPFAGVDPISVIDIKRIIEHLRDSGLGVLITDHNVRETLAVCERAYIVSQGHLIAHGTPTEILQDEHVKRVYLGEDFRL
T3 sequence (looked up) 2: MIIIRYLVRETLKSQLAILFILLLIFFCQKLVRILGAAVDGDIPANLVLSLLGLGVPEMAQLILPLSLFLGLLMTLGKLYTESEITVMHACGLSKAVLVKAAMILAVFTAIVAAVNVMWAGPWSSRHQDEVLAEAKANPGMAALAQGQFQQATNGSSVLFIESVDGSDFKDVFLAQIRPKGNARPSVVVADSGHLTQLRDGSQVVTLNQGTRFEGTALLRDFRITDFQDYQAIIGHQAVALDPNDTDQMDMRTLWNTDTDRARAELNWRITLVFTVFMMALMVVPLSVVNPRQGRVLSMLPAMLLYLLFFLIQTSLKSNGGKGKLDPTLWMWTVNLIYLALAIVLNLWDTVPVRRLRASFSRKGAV
T3 sequence (looked up) 3: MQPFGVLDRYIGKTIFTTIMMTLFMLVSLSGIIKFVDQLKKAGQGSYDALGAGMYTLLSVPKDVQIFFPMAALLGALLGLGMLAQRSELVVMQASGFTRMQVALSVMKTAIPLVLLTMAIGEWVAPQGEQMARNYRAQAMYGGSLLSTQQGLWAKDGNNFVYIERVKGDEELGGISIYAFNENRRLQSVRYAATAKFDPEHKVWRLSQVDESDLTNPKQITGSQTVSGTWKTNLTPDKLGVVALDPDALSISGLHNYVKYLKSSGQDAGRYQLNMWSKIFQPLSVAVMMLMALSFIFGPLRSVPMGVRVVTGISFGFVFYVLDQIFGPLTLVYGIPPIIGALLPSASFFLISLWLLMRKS

LptB2FG complex [4] = target: T3, LptB2FG complex; experiment: thermal shift assay (nanoDSF); LptB2FG and resolubilised LptB2FGC in 50 mM HEPES pH 7.5, 150 mM NaCl, 5 mM MgCl2, 5% glycerol, 0.05% DDM; 1 °C/min from 25 to 85 °C; first derivative of the 350 nm fluorescence; conditions: both partners purified

For `Nc1ncnc2c1ncn2[C@@H]1O[C@H](COP(=O)(O)OP(=O)(O)OP(=O)(O)O)[C@@H](O)[C@H]1O` [ATP], the “malachite green ATPase assay, proteoliposomes” value (LptB2FG [1]) was “activity of LptB2FG and LptB2FGC was determined by measuring the release of inorganic phosphate”.

In the case of Ra-LPS, the “shift in melting temperature” value (LptB2FG [2]) is reported as ~ 9 K and the “increase in melting temperature” value (LptB2FGC) is reported as -271 °C.

B1: LptC, full length with its transmembrane helix (natural protein, E. coli, UniProt P0ADV9 1-191, looked up)
chain: MSKARRWVIIVLSLAVLVMIGINMAEKDDTAQVVVNNNDPTYKSEHTDTLVYNPEGALSYRLIAQHVEYYSDQAVSWFTQPVLTTFDKDKIPTWSVKADKAKLTNDRMLYLYGHVEVNALVPDSQLRRITTDNAQINLVTQDVTSEDLVTLYGTTFNSSGLKMRGNLRSKNAELIEKVRTSYEIQNKQTQP
notes: LptC, E. coli, full length including the transmembrane helix; Isotope labelled for NMR (13C,15N-lysine or uniform 15N); also called 15N-LptC; 15N,13C-Lys-LptC; source: E. coli BL21(DE3), pBAD33.1, membranes solubilised in LS detergent, purified (Ni-NTA)
With B1 the “stoichiometry N” value (LptB2FG complex [3]) was 1 LptC per LptB2FG and the “increase of melting temperature (nanoDSF)” value (LptB2FG complex [4]) was 11 K.
